Results on 33 compounds are retold here after ChEMBL document CHEMBL1697731, “Cheminformatics analysis of assertions mined from literature that describe drug-induced liver injury in different species” (Chem Res Toxicol, 2010).

Data set [1] deals with Hepatotoxicity. Nature of the data set: Literature-mined compound from Fourches et al multi-species drug-induced liver injury (DILI) dataset, effect in non-rodents.
In data set [2] the test system is Hepatotoxicity. Nature of the data set: Literature-mined compound from Fourches et al multi-species drug-induced liver injury (DILI) dataset, effect in humans. To be noted: human.
In data set [3] the test system is Hepatotoxicity. The data set is described as follows: Literature-mined compound from Fourches et al multi-species drug-induced liver injury (DILI) dataset, effect in rodents. The following applies: rodentia.

For the compound `C=CCC1(CC=C)C(=O)NC(=O)NC1=O` [ALLOBARBITAL], the Hepatotoxicity entry in the data set on Hepatotoxicity [1] is recorded as “no drug-induced liver injury reported”; with Hepatotoxicity [2], “no drug-induced liver injury reported”; in the data set with Hepatotoxicity [3], “drug-induced liver injury reported”.
In the case of `Oc1ncnc2[nH]ncc12` [ALLOPURINOL], the Hepatotoxicity result is on record as “no drug-induced liver injury reported” in the data set with Hepatotoxicity [1], “drug-induced liver injury reported” in the data set with Hepatotoxicity [2] and “drug-induced liver injury reported” in the data set on Hepatotoxicity [3].
`CCCCC[C@H](O)/C=C/[C@H]1[C@H](O)CC(=O)[C@@H]1CCCCCCC(=O)O` [ALPROSTADIL]: the Hepatotoxicity entry with Hepatotoxicity [1], with Hepatotoxicity [2] and in the data set on Hepatotoxicity [3] was “drug-induced liver injury reported” in each case.
`CCN(CCCc1ccccc1)CCCc1ccccc1` [ALVERINE]: the Hepatotoxicity result with Hepatotoxicity [1] is “no drug-induced liver injury reported”; with Hepatotoxicity [2] it was “drug-induced liver injury reported”; with Hepatotoxicity [3], “no drug-induced liver injury reported”.
Regarding `CN1CC[C@H](c2c(O)cc(O)c3c(=O)cc(-c4ccccc4Cl)oc23)[C@H](O)C1` [ALVOCIDIB], the Hepatotoxicity result is listed as “no drug-induced liver injury reported” in the data set on Hepatotoxicity [1], “drug-induced liver injury reported” with Hepatotoxicity [2] and “no drug-induced liver injury reported” in the data set on Hepatotoxicity [3].
As to `NC12CC3CC(CC(C3)C1)C2` [AMANTADINE], the Hepatotoxicity entry was “no drug-induced liver injury reported” in the data set with Hepatotoxicity [1], “no drug-induced liver injury reported” with Hepatotoxicity [2] and “drug-induced liver injury reported” in the data set on Hepatotoxicity [3].
For `COC(c1ccccc1)(c1ccccc1)[C@H](Oc1nc(C)cc(C)n1)C(=O)O` [AMBRISENTAN], the Hepatotoxicity result in the data set on Hepatotoxicity [1] was “drug-induced liver injury reported”; in the data set on Hepatotoxicity [2], “no drug-induced liver injury reported”; with Hepatotoxicity [3] it was “no drug-induced liver injury reported”.
Regarding `Nc1c(Br)cc(Br)cc1CN[C@H]1CC[C@H](O)CC1` [AMBROXOL], the Hepatotoxicity result with Hepatotoxicity [1] is reported as “no drug-induced liver injury reported”; with Hepatotoxicity [2], “no drug-induced liver injury reported”; in the data set on Hepatotoxicity [3], “drug-induced liver injury reported”.
As to `NCC[C@H](O)C(=O)N[C@@H]1C[C@H](N)[C@@H](O[C@H]2O[C@H](CN)[C@@H](O)[C@H](O)[C@H]2O)[C@H](O)[C@H]1O[C@H]1O[C@H](CO)[C@@H](O)[C@H](N)[C@H]1O` [AMIKACIN], the results for the Hepatotoxicity entry with Hepatotoxicity [1], in the data set on Hepatotoxicity [2] and in the data set on Hepatotoxicity [3] were “drug-induced liver injury reported”, “drug-induced liver injury reported” and “no drug-induced liver injury reported”, respectively.
For the compound `N=C(N)NC(=O)c1nc(Cl)c(N)nc1N` [AMILORIDE], the Hepatotoxicity entry in the data set with Hepatotoxicity [1] is on record as “no drug-induced liver injury reported”; in the data set with Hepatotoxicity [2] it was “drug-induced liver injury reported”; in the data set with Hepatotoxicity [3] it was “drug-induced liver injury reported”.
Regarding `O=C(O)CCCCCCNC1c2ccccc2CCc2ccccc21` [AMINEPTINE], the Hepatotoxicity result with Hepatotoxicity [1] is listed as “no drug-induced liver injury reported”; with Hepatotoxicity [2], “drug-induced liver injury reported”; with Hepatotoxicity [3] it was “drug-induced liver injury reported”.
Regarding `Nc1ccc(C(=O)O)cc1` [AMINOBENZOIC ACID], the Hepatotoxicity result is recorded as “no drug-induced liver injury reported” with Hepatotoxicity [1], “no drug-induced liver injury reported” with Hepatotoxicity [2] and “drug-induced liver injury reported” in the data set on Hepatotoxicity [3].
For the compound `NCCCCCC(=O)O` [AMINOCAPROIC ACID], the Hepatotoxicity entry is on record as “no drug-induced liver injury reported” in the data set on Hepatotoxicity [1], “drug-induced liver injury reported” in the data set on Hepatotoxicity [2] and “no drug-induced liver injury reported” in the data set on Hepatotoxicity [3].
As to `CCC1(c2ccc(N)cc2)CCC(=O)NC1=O` (centres undefined) [AMINOGLUTETHIMIDE], the Hepatotoxicity entry is “no drug-induced liver injury reported” in the data set with Hepatotoxicity [1], “no drug-induced liver injury reported” in the data set on Hepatotoxicity [2] and “drug-induced liver injury reported” in the data set with Hepatotoxicity [3].
With `Cn1c(=O)c2[nH]cnc2n(C)c1=O.Cn1c(=O)c2[nH]cnc2n(C)c1=O.NCCN` [AMINOPHYLLINE], the values for the Hepatotoxicity result in the data set on Hepatotoxicity [1], in the data set on Hepatotoxicity [2] and with Hepatotoxicity [3] were “no drug-induced liver injury reported”, “drug-induced liver injury reported” and “drug-induced liver injury reported”, respectively.
As for `Cc1c(N(C)C)c(=O)n(-c2ccccc2)n1C` [AMINOPYRINE], the values for the Hepatotoxicity result in the data set on Hepatotoxicity [1], with Hepatotoxicity [2] and in the data set on Hepatotoxicity [3] were “no drug-induced liver injury reported”, “drug-induced liver injury reported” and “drug-induced liver injury reported”, respectively.
For `Nc1ccc(C(=O)O)c(O)c1` [AMINOSALICYLIC ACID], the figures for the Hepatotoxicity entry with Hepatotoxicity [1], with Hepatotoxicity [2] and in the data set with Hepatotoxicity [3] were “no drug-induced liver injury reported”, “drug-induced liver injury reported” and “no drug-induced liver injury reported”, respectively.
On to `CCCCc1oc2ccccc2c1C(=O)c1cc(I)c(OCCN(CC)CC)c(I)c1` [AMIODARONE], for which the Hepatotoxicity entry in the data set with Hepatotoxicity [1] (Liver), in the data set with Hepatotoxicity [2] (Liver) and with Hepatotoxicity [3] (Liver) was “drug-induced liver injury reported” each time.
For the compound `CN(C)CCC=C1c2ccccc2CCc2ccccc21` [AMITRIPTYLINE], the Hepatotoxicity result in the data set with Hepatotoxicity [1] is reported as “no drug-induced liver injury reported”; in the data set with Hepatotoxicity [2] it was “drug-induced liver injury reported”; in the data set with Hepatotoxicity [3] it was “drug-induced liver injury reported”.
On to `CCOC(=O)C1=C(COCCN)NC(C)=C(C(=O)OC)C1c1ccccc1Cl` (centres undefined) [AMLODIPINE], for which the Hepatotoxicity entry in the data set with Hepatotoxicity [1] is on record as “no drug-induced liver injury reported”; with Hepatotoxicity [2], “no drug-induced liver injury reported”; in the data set on Hepatotoxicity [3], “drug-induced liver injury reported”.
Regarding `CCC1(CCC(C)C)C(=O)NC(=O)NC1=O` [AMOBARBITAL], the values for the Hepatotoxicity entry in the data set on Hepatotoxicity [1], in the data set on Hepatotoxicity [2] and with Hepatotoxicity [3] were “no drug-induced liver injury reported”, “no drug-induced liver injury reported” and “drug-induced liver injury reported”, respectively.
On to `CC1(C)S[C@@H]2[C@H](NC(=O)[C@H](N)c3ccc(O)cc3)C(=O)N2[C@H]1C(=O)O.O=C([O-])[C@H]1/C(=C/CO)O[C@@H]2CC(=O)N21.[K+]` [AMOXICILLIN/CLAVULANIC ACID], for which the values for the Hepatotoxicity entry with Hepatotoxicity [1], in the data set on Hepatotoxicity [2] and with Hepatotoxicity [3] were “no drug-induced liver injury reported”, “drug-induced liver injury reported” and “no drug-induced liver injury reported”, respectively.
As to `CC1(C)S[C@@H]2[C@H](NC(=O)[C@H](N)c3ccc(O)cc3)C(=O)N2[C@H]1C(=O)O` [AMOXICILLIN], the Hepatotoxicity entry in the data set with Hepatotoxicity [1] is “no drug-induced liver injury reported”; in the data set on Hepatotoxicity [2] it was “drug-induced liver injury reported”; with Hepatotoxicity [3], “no drug-induced liver injury reported”.
In the case of `CC(N)Cc1ccccc1` (centres undefined) [AMPHETAMINE], the values for the Hepatotoxicity result in the data set with Hepatotoxicity [1], in the data set with Hepatotoxicity [2] and in the data set on Hepatotoxicity [3] were “no drug-induced liver injury reported”, “drug-induced liver injury reported” and “drug-induced liver injury reported”, respectively.
Take `C[C@@H]1[C@H](O)[C@@H](C)/C=C/C=C/C=C/C=C/C=C/C=C/C=C/[C@H](O[C@@H]2O[C@H](C)[C@@H](O)[C@H](N)[C@@H]2O)C[C@@H]2O[C@](O)(C[C@@H](O)C[C@@H](O)[C@H](O)CC[C@@H](O)C[C@@H](O)CC(=O)O[C@H]1C)C[C@H](O)[C@H]2C(=O)O` [AMPHOTERICIN B]: the results for the Hepatotoxicity result in the data set with Hepatotoxicity [1], in the data set with Hepatotoxicity [2] and with Hepatotoxicity [3] were “no drug-induced liver injury reported”, “drug-induced liver injury reported” and “drug-induced liver injury reported”, respectively.
For `CC1(C)S[C@@H]2[C@H](NC(=O)[C@H](N)c3ccccc3)C(=O)N2[C@H]1C(=O)O` [AMPICILLIN], the Hepatotoxicity result in the data set on Hepatotoxicity [1] is given as “no drug-induced liver injury reported”; in the data set with Hepatotoxicity [2] it was “drug-induced liver injury reported”; in the data set with Hepatotoxicity [3], “drug-induced liver injury reported”.
For the compound `COc1cc(NS(C)(=O)=O)ccc1Nc1c2ccccc2nc2ccccc12` [AMSACRINE], the Hepatotoxicity entry is recorded as “no drug-induced liver injury reported” in the data set on Hepatotoxicity [1], “drug-induced liver injury reported” in the data set with Hepatotoxicity [2] and “no drug-induced liver injury reported” in the data set with Hepatotoxicity [3].
As to `CC(C)(C#N)c1cc(Cn2cncn2)cc(C(C)(C)C#N)c1` [ANASTROZOLE], the Hepatotoxicity entry with Hepatotoxicity [1] is given as “no drug-induced liver injury reported”; in the data set with Hepatotoxicity [2] it was “drug-induced liver injury reported”; in the data set on Hepatotoxicity [3] it was “no drug-induced liver injury reported”.
Consider `COc1ccc(-c2cc(=S)ss2)cc1` [ANETHOLTRITHION], for which the Hepatotoxicity entry in the data set on Hepatotoxicity [1] is reported as “no drug-induced liver injury reported”; in the data set on Hepatotoxicity [2], “no drug-induced liver injury reported”; with Hepatotoxicity [3], “drug-induced liver injury reported”.
As for `O=C1c2c(O)cccc2Cc2cccc(O)c21` [ANTHRALIN], the results for the Hepatotoxicity entry with Hepatotoxicity [1], with Hepatotoxicity [2] and with Hepatotoxicity [3] were “no drug-induced liver injury reported”, “drug-induced liver injury reported” and “drug-induced liver injury reported”, respectively.
On to `CN1CCc2cccc3c2[C@H]1Cc1ccc(O)c(O)c1-3` [APOMORPHINE], for which the Hepatotoxicity entry is reported as “no drug-induced liver injury reported” with Hepatotoxicity [1], “no drug-induced liver injury reported” in the data set with Hepatotoxicity [2] and “drug-induced liver injury reported” in the data set on Hepatotoxicity [3].
For the compound `C=CCC1(C(C)C)C(=O)NC(=O)NC1=O` [APROBARBITAL], the Hepatotoxicity result with Hepatotoxicity [1] is reported as “no drug-induced liver injury reported”; in the data set with Hepatotoxicity [2], “no drug-induced liver injury reported”; in the data set on Hepatotoxicity [3], “drug-induced liver injury reported”.
On to `N=C(N)NCCC[C@H](N)C(=O)O` [ARGININE], for which the Hepatotoxicity result in the data set with Hepatotoxicity [1], in the data set with Hepatotoxicity [2] and with Hepatotoxicity [3] was “drug-induced liver injury reported” throughout.
